Measurements from patent publication US20070155955A1, “Amylin aggregation inhibitors and use thereof” (APPLIED RESEARCH SYSTEMS ARS HOLDING N.V., priority 2003, published 2007).
No end group written: not given here.

Assay: In vitro peptide solubility assay (qualitative, pellet after centrifugation)
Assay type: physicochemical
Conditions: Tris buffer, pH 7.4; read-out: Solubilty
Protocol: Solubility of peptides of the invention was obtained using a qualitative assay where the peptide was dissolved in Tris buffer, pH 7.4 at 1, 5, or 10 mg/ml, vortexed briefly, and then centrifuged at 16,000 g for 30 min.

| solubility [µg/mL] | Substance |
| --- | --- |
| > 10000 | Ac-DFGAPL-NH2 (N-terminus and C-terminus assumed) [SEQ ID NO. 3] |
| ≥ 2000 | DFGAILD [SEQ ID NO. 12] |
| > 10000 | DFGAPL [SEQ ID NO. 2] |
| > 10000 | DFGAPLD [SEQ ID NO. 4] |
| < 200 | NFGAILS [SEQ ID NO. 10] |
| < 1000 | NFGAPLS [SEQ ID NO. 11] |
